Results published in PubChem BioAssay (NCI).
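Five compound concentrations were applied to cells in 96-well plates for 48 hours; endpoints were derived by simple linear interpolation of the resulting dose-response curve. Here, GI50 denotes the concentration required for 50% inhibition of growth. TGI: concentration producing complete growth inhibition.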 Where a SMILES comes first, the peptide text is derived from it. The star is where a group is joined. Palmitoyl = CCCCCCCCCCCCCCCC(=O)*

What was measured:
Test in all cases: NCI anticancer screen, dose series, 48 h
MCF7 breast = tested on: MCF7 breast
LOX IMVI melanoma = tested on: LOX IMVI melanoma
HCC-2998 colon = tested on: HCC-2998 colon
SF-295 CNS = tested on: SF-295 CNS
A549 NSCLC = tested on: A549 NSCLC
SF-539 CNS = tested on: SF-539 CNS
NCI-H522 lung = tested on: NCI-H522 lung
M14 melanoma = tested on: M14 melanoma
HOP-92 NSCLC = tested on: HOP-92 NSCLC
NCI/ADR-RES ovarian = tested on: NCI/ADR-RES ovarian

Row | Compound | TGI (MCF7 breast) | TGI (LOX IMVI melanoma) | TGI (HCC-2998 colon) | TGI (SF-295 CNS) | TGI (A549 NSCLC) | TGI (SF-539 CNS) | TGI (NCI-H522 lung) | TGI (M14 melanoma) | TGI (HOP-92 NSCLC) | TGI (NCI/ADR-RES ovarian) | GI50 (LOX IMVI melanoma) | GI50 (HCC-2998 colon) | GI50 (SF-295 CNS) | GI50 (NCI/ADR-RES ovarian) | GI50 (MCF7 breast) | GI50 (A549 NSCLC) | GI50 (SF-539 CNS) | GI50 (NCI-H522 lung) | GI50 (M14 melanoma) | GI50 (HOP-92 NSCLC)
1 | CC12C=CC(=O)C=C1CCC1C3CCC(O)(C(=O)CO)C3(C)CC(O)C12F (stereo not given) | > 100 µM | > 100 µM | > 100 µM | > 100 µM | > 100 µM | > 100 µM | > 100 µM | > 100 µM | > 100 µM | > 100 µM | – | – | – | – | – | – | – | – | – | –
2 | CON(C)c1nc(N(C)OC)nc(N(C)OC)n1 | > 10 µM | > 10 µM | > 10 µM | > 10 µM | > 10 µM | > 10 µM | > 10 µM | > 10 µM | – | > 10 µM | – | – | – | – | – | – | – | – | – | –
3 | Nc1nc(O)c2ncn([C@H]3CC[C@@H](CO)O3)c2n1 | > 100 µM | > 100 µM | – | > 100 µM | – | – | – | > 100 µM | > 100 µM | > 100 µM | – | – | – | – | – | – | – | – | – | –
4 | CN1C(c2ccccc2)CC(=O)C(N)C1c1ccccc1 (stereo not given) | – | 32.1 µM | 43.3 µM | > 100 µM | > 100 µM | > 96.5 µM | 33.7 µM | > 69.2 µM | 78.9 µM | – | – | – | – | – | – | – | – | – | – | –
5 | Cn1c(-c2ccccc2)cc(-c2cccs2)c1-c1cccs1 | > 100 µM | > 100 µM | > 100 µM | > 100 µM | > 100 µM | > 100 µM | > 100 µM | – | > 100 µM | > 100 µM | – | – | – | – | – | – | – | – | – | –
6 | Cc1cc(C)nc(NS(=O)(=O)c2ccc(NC(=O)c3cccc4c(Nc5ccc(S(=O)(=O)Nc6cc(C)on6)cc5)c5ccccc5nc34)cc2)n1 | – | 35.6 µM | 29.4 µM | – | – | 35.7 µM | 32.5 µM | 47.5 µM | – | – | – | – | – | – | – | – | – | – | – | –
7 | CCN1CCC(O)(/C=C/c2ccccc2C)C(C(=O)/C=C/c2ccccc2C)C1 (stereo not given) | 7.37 µM | 3.38 µM | 2.61 µM | 6.68 µM | 12.8 µM | 4.28 µM | – | 4.45 µM | 3.38 µM | 12.7 µM | – | – | – | – | – | – | – | – | – | –
8 | COC(=O)C1=C(OC(=O)/C(=C/c2ccc(Cl)cc2)c2ccc(Cl)cc2)C(C(=O)OC)[C@]2(O)[C@@H](C(=O)OC)[C@H]1C[C@@H](c1ccccc1)[C@@H]2C(=O)OC (stereo not given in full) | – | > 100 µM | – | > 100 µM | > 100 µM | > 100 µM | > 100 µM | > 100 µM | – | > 100 µM | – | – | – | – | – | – | – | – | – | –
9 | O[C@@]12Cc3c([nH]c4ccccc34)[C@@H]3Oc4cccc5c4[C@@]31CCN(CC1CC1)[C@@H]2C5 | 31.3 µM | 32.9 µM | 31.9 µM | – | 43.5 µM | 36.3 µM | 38 µM | 39.4 µM | 25.6 µM | 51.2 µM | – | – | – | – | – | – | – | – | – | –
10 | C/C(=N/N=C(\[O-])c1ccncc1)C(F)(F)F.C/C(=N\N=C(/[O-])c1ccncc1)C(F)(F)F.[Ni+2] | – | > 1 µM | > 1 µM | > 1 µM | – | – | – | – | – | > 1 µM | > 1000 nM | > 1000 nM | > 1000 nM | > 1 µM | – | – | – | – | – | –
11 | CCCCCCCCCCCCCCCC(=O)N1CCCC1C(=O)NCC(=O)NC(Cc1ccccc1)C(=O)NC(C)C(=O)NC(CO)C(=O)NC(Cc1ccc(O)cc1)C(=O)NC(CCCCN)C(=O)NC(CC(C)C)C(=O)NC(CCCN=C(N)N)C(=O)N1CCCC1C(=O)NCC(N)=O (stereo not given) (Palmitoyl-PGFASYKLRPG-NH2; configuration not given here) | 42.8 µM | – | 28.9 µM | 67.1 µM | 40.8 µM | 61.4 µM | 46.9 µM | 35.3 µM | 34.7 µM | 35 µM | – | 13400 nM | 27300 nM | 16.2 µM | 18.2 µM | 21.3 µM | 24 µM | 20.2 µM | 16.8 µM | 15.8 µM
12 | C=C(C)C1Cc2c(c3ccccc3n(C)c2=O)O1 (stereo not given) | – | > 100 µM | – | > 100 µM | – | > 100 µM | > 100 µM | > 100 µM | > 100 µM | – | – | – | – | – | – | – | – | – | – | –
13 | c1ccc(-c2nc(N3CCNCC3)c3oc(-c4ccccc4)nc3n2)cc1 | 3.31 µM | – | 3.05 µM | 3.22 µM | – | 3.17 µM | 4.51 µM | – | 3.06 µM | – | – | 1580 nM | 1750 nM | – | 1.48 µM | – | 1.76 µM | 1.99 µM | – | 1.46 µM
14 | CC(C)C(C(=O)O)N1C(=O)c2ccccc2C1=O (stereo not given) | > 100 µM | > 100 µM | > 100 µM | > 100 µM | > 100 µM | – | > 100 µM | > 100 µM | > 100 µM | > 100 µM | – | – | – | – | – | – | – | – | – | –
